Where a name gives a salt, the structure may show the parent alone.
What was measured:
[1] = Antihypertensive activity, spontaneous hypertensive rat, indirect tail cuff method; assay type: in vivo; details: three days, measured on third day
Experimental: The spiro[benzofuran-2(3H),1'-cycloheptane]s of formula I of the present invention are useful as antihypertensive agents due to their ability to depress blood pressure in mammals. Antihypertensive activity is measured in the spontaneous hypertensive rat by the indirect tail cuff method described in "Methods in Pharmacology", A. Schwartz, Ed., Vol. I, Appleton-Century Crofts, New York, N. Y., 1971, p. 135. In this procedure a group of five animals are treated orally for three days with the test compound in relation to a control group of the same number. The drop in blood pressure is measured on the third day following administration. The antihypertensive activities of some of the compounds, expressed as a decrease in mean arterial blood pressure (in mm Hg), are given in Table I.

[2] = Analgesic activity, 2-phenyl-1,4-benzoquinone-induced writhing test; assay type: in vivo, mice
Source text: Compounds I of the present invention are useful as analgesic agents due to their ability to alleviate pain in mammals. […] Exptl. Biol. Med., 95, 729 (1957)].

[3] = Anticonvulsant activity, supramaximal electroshock assay (SES); assay type: in vivo, mice; details: Mus musculus, ip
Experimental: Compounds I of the present invention are useful as anticonvulsant agents. […] Groups of male mice (18-30 grams) are used. Drugs are prepared using distilled water and if insoluble, a surfactant is added. Control animals receive vehicle. Drugs are routinely administered intraperitoneally. The dosage volume is 10 ml/kg.
The animal's eyes are placed across the output terminals of an A.C. shocker that delivers 206 volts rms for 300 milliseconds. Electrode paste coats the animal's eyes at the point of contact with the terminals.
Protection is expressed as normalized percent inhibition relative to vehicle control. [formula]
A time response is carried out using 6 animals per group. Animals are tested at 30, 60 and 120 minutes postdrug. Additional time periods are tested if indicated by previous tests.
When the peak activity time has been determined, a dose response is initiated, using 10 animals per group at that time period. The ED50 and 95% confidence interval are calculated by computerized probit analysis.

[4] = Inhibition of tetrabenazine-induced ptosis (antidepressant activity); assay type: in vivo, mice; details: Mus musculus, ip, 0.5 h; i.p.; tetrabenazine 40 mg/kg i.p. 30 minutes after
Experimental: Compounds I of the present invention are useful as antidepressant agents due to their ability to prevent tetrabenazine induced ptosis in mice. The method used is as follows.
Male mice weighing 20 to 30 grams are used in test groups of five subjects. All compounds are dissolved, or suspended with one drop of a non-ionic surfactant in distilled water and administered in volumes of 10 ml/kg of body weight. Tetrabenazine (TBZ) solution is made from methanesulfonate salt and the concentration is adjusted to enable the administration of 40 mg/kg of base by intraperitoneal injection (i.p.).
If the test compound is administered intraperitoneally, TBZ is injected 30 minutes after administration. If the test compound is administered orally (p.o.), TBZ is injected 60 minutes after the administration. A control group received solvent and TBZ by the same route and at the same intervals as the drug groups.
Thirty and sixty minutes after TBZ injection the subjects are placed in individual plastic containers (10/1/2"×8"×6") and one minute after transfer they are scored for ptosis on the followig scale: eyes closed=4, eyes 3/4 closed=3, eyes 1/2 closed=2, eyes 1/4 closed=1, and eyes open=0. The total score for each group of five will therefore be from 0 to 20 and these scores are used as indications of drug activity.
The vehicle-control group score is used as a determinate of the validity of each test. […]

CN(C)CCC=C1c2ccccc2OC12CCCCCC2
Blood Pressure Drop ([1]; 50 mg/kg p.o.): 32 mm Hg

CN(CCCC(c1ccc(F)cc1)c1ccc(F)cc1)CCCC1c2ccccc2OC12CCCCCC2 (stereo not shown) [N-[4-[Bis(4-fluorophenyl)]-butyl]-N-methyl-spiro[benzofuran-2(3H),1'-cycloheptane]-3-propanamine fumarate]
% Inhibition at 20 mg/kg, s.c. [2]: 70%
Blood Pressure Drop ([1]; 30 mg/kg p.o.): 61 mm Hg

CN(CCCC1c2ccccc2OC12CCCCCC2)Cc1ccccc1 (stereo not shown) [N-Methyl-N-[3-[spiro[benzofuran-2(3H),1'-cyclohept-3-yl]]propyl]benzenemethanamine maleate]
% Inhibition at 20 mg/kg, s.c. [2]: 54%

CC(C)NCC(O)CO/N=C1/c2ccccc2OC12CCCCCC2 (stereo not shown) [(Z)-O-[3-[(1-Methylethyl)amino]-2-hydroxypropyl]spiro[benzofuran-2(3H),1'-cycloheptan]-3-one oxime maleate]
% Inhibition at 20 mg/kg, s.c. [2]: 40%

C[C@](N)(Cc1ccc(O)c(O)c1)C(=O)O [alpha-Methyldopa, reference compound]
Blood Pressure Drop ([1]; 50 mg/kg p.o.): 40 mm Hg

CCC(=O)O[C@](Cc1ccccc1)(c1ccccc1)[C@H](C)CN(C)C [Propoxyphene, reference compound]
ED50 ([2]; Mus musculus, sc): 3.9 mg/kg

CN(C)CCCC1c2cc(Cl)ccc2OC12CCCCCC2.Cl (stereo not shown) [5-Chloro-3-(3-dimethylaminopropyl)-spiro[benzofuran-2(3H),1'-cycloheptane] hydrochloride]
% Inhibition at 20 mg/kg, s.c. [2]: 40%

CN(C)CCO/N=C1/c2ccccc2OC12CCCCCC2 [(Z)-O-Dimethylaminoethyl-spiro[benzofuran-2(3H),1'-cycloheptan]-3-one oxime maleate]
ED50 [3]: 30.2 mg/kg
ED50 [4]: 72.5 mg/kg

CN(C)CCCC1c2ccccc2OC12CCCCCC2 (stereo not shown) [3-(3-Dimethylaminopropyl)-spiro[benzofuran-2(3H),1'-cycloheptane]hydrochloride]
ED50 [3]: 30.6 mg/kg

CN(CCCC1c2ccccc2OC12CCCCCC2)CCc1ccccc1.O=C(O)/C=C/C(=O)O (stereo not shown) [N-Methyl-N-(2-phenylethyl)-spiro[benzofuran-2(3H),1'-cycloheptane]-3-propanamine fumarate]
Blood Pressure Drop ([1]; 50 mg/kg p.o.): 76 mm Hg

CNC1=Nc2ccc(Cl)cc2C(c2ccccc2)=[N+]([O-])C1 [Chlordiazepoxide, reference compound]
ED50 [3]: 8 mg/kg
